Laboratory results as given in the supplement of paper PMC5908809.

Tests used:
[1] = tested on: normal NK cells expanded with K562-aAPC; test: drug sensitivity score (DSS) (DSS units); higher = more sensitive; extreme values may be limits of the assay; conditions: 72 h; IL-2 2.5 ng/mL
Method: (§1)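 Drug sensitivity and resistance testing on K562-aAPC-expanded normal NK cells: 5 concentrations (10-fold steps over a 10,000-fold range), 72 h at 37 °C, viability by CellTiter-Glo normalised to DMSO and benzethonium chloride controls; DSS from the fitted curve.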

NK-92 (IL-2 2.5 ng/mL) [2] = test: as above; conditions: 72 h
NK-YS (IL-2 2.5 ng/mL) [3] = test: as above; conditions: 72 h
[4] = tested on: normal primary NK cells, pool 3 (3 donors) (IL-2 2.5 ng/mL); test: as above; conditions: 72 h
[5] = tested on: normal primary NK cells, pool 1 (3 donors), resting (IL-2 0 ng/mL); test: as above; conditions: 72 h
KHYG-1 (IL-2 2.5 ng/mL) [6] = test: as above; conditions: 72 h
[7] = tested on: normal primary NK cells, pool 1 (3 donors) (IL-2 2.5 ng/mL); test: as above; conditions: 72 h
[8] = tested on: normal primary NK cells, pool 2 (3 donors) (IL-2 2.5 ng/mL); test: as above; conditions: 72 h
SNK-6 (IL-2 2.5 ng/mL) [9] = test: as above; conditions: 72 h
KAI3 (IL-2 2.5 ng/mL) [10] = test: as above; conditions: 72 h
NKL (IL-2 2.5 ng/mL) [11] = test: as above; conditions: 72 h
IMC-1 (IL-2 20 ng/mL) [12] = test: as above; conditions: 72 h
YT (IL-2 2.5 ng/mL) [13] = test: as above; conditions: 72 h
DERL-7 (IL-2 2.5 ng/mL) [14] = test: as above; conditions: 72 h
NK-92 (IL-2 2.5 ng/mL) [15] = test: percent inhibition of viability; higher = more inhibition; conditions: 72 h
NK-YS (IL-2 2.5 ng/mL) [16] = test: as above; conditions: 72 h
[17] = tested on: normal primary NK cells, pool 3 (3 donors) (IL-2 2.5 ng/mL); test: as above; conditions: 72 h
[18] = tested on: normal primary NK cells, pool 1 (3 donors), resting (IL-2 0 ng/mL); test: as above; conditions: 72 h
KHYG-1 (IL-2 2.5 ng/mL) [19] = test: as above; conditions: 72 h
[20] = tested on: normal primary NK cells, pool 1 (3 donors) (IL-2 2.5 ng/mL); test: as above; conditions: 72 h
[21] = tested on: normal primary NK cells, pool 2 (3 donors) (IL-2 2.5 ng/mL); test: as above; conditions: 72 h
SNK-6 (IL-2 2.5 ng/mL) [22] = test: as above; conditions: 72 h
KAI3 (IL-2 2.5 ng/mL) [23] = test: as above; conditions: 72 h
NKL (IL-2 2.5 ng/mL) [24] = test: as above; conditions: 72 h
IMC-1 (IL-2 20 ng/mL) [25] = test: as above; conditions: 72 h
YT (IL-2 2.5 ng/mL) [26] = test: as above; conditions: 72 h
DERL-7 (IL-2 2.5 ng/mL) [27] = test: as above; conditions: 72 h
[28] = tested on: normal NK cells expanded with K562-aAPC; test: as above; conditions: 72 h, IL-2 2.5 ng/mL
Method: as §1

COc1ccc(-c2ccc3c(N4CCOC[C@@H]4C)nc(N4CCOC[C@@H]4C)nc3n2)cc1CO [AZD8055] (max concentration tested 10000 nM)
Conditions	drug sensitivity score
DERL-7 (IL-2 2.5 ng/mL) [14]	27.5
IMC-1 (IL-2 20 ng/mL) [12]	0.56
KAI3 (IL-2 2.5 ng/mL) [10]	20.6
KHYG-1 (IL-2 2.5 ng/mL) [6]	18.6
NK-92 (IL-2 2.5 ng/mL) [2]	20.7
NK-YS (IL-2 2.5 ng/mL) [3]	18.9
NKL (IL-2 2.5 ng/mL) [11]	25.5
SNK-6 (IL-2 2.5 ng/mL) [9]	19.1
YT (IL-2 2.5 ng/mL) [13]	17.3
[1]	12.8
[4]	2.13
[5]	0
[7]	8.04
[8]	4.67

percent inhibition of viability [%]
Conditions	1 nM	10 nM	100 nM	1000 nM	10000 nM
DERL-7 (IL-2 2.5 ng/mL) [27]	0.54	34.1	65.8	86.8	88.3
IMC-1 (IL-2 20 ng/mL) [25]	1.04	-9.13	-36.4	1.86	16.9
KAI3 (IL-2 2.5 ng/mL) [23]	16.4	25.7	50.1	58.8	60.9
KHYG-1 (IL-2 2.5 ng/mL) [19]	3.41	7.07	30.4	82.5	82.6
NK-92 (IL-2 2.5 ng/mL) [15]	8.5	22.1	48.4	64.4	97.2
NK-YS (IL-2 2.5 ng/mL) [16]	4.19	9.89	45.4	66.8	78.2
NKL (IL-2 2.5 ng/mL) [24]	9.88	42.8	61.2	63.9	61.8
SNK-6 (IL-2 2.5 ng/mL) [22]	-1.89	12.4	53.8	54.5	54.5
YT (IL-2 2.5 ng/mL) [26]	7.4	12.9	43.8	56.6	68.3
[17]	-5.43	8.78	9.67	14.1	16.9
[18]	-13.5	-7.65	-3.85	9.37	-4.87
[20]	-5.65	6.16	8.42	38.2	29.2
[21]	-5.63	5.36	15.5	20	22.5
[28]	6.73	19.9	29.3	42.1	41.3
